Experimental findings from patent US20240132473A1, “SULFOXIMIDE SUBSTITUTED INDAZOLE IRAK4 KINASE INHIBITOR, PREPARATION METHOD THEREOF AND USE THEREOF” (Shanghai Xunhe Pharmaceutical Technology Co. Ltd., priority 2021, published 2024) are described below.

The target of one data set is hERG potassium channel (Homo sapiens (Human), UniProt Q12809). The data set is described as follows: cell-based. As to conditions: human. The text has this:
The rapid activation of delayed rectifier outward potassium current (IKr) in humans is mainly mediated by hERG ion channel and participates in human myocardial cell repolarization. Drug blockade of this current will lead to the appearance of QT interval prolongation syndrome in clinical practice, which can easily induce acute arrhythmia and even sudden death.

Data set [1] in a line: in vivo. As to conditions: ICR, mouse, po. As to the method: On the day of administration, observations were made approximately 0.5, 1, 2, 4, and 6 hours after the first administration. During day 2 to day 6 of the observation period, observations were made twice a day, once in the morning and once in the afternoon.
Observations included but not limited to: general conditions, behavioral activities, gait and posture, eyes, mouth, nose, gastrointestinal tract, skin hair and urogenital tract.
Weight data were expressed as mean ±standard deviation. Levene's test and one-way analysis of variance were used for comparison between groups. If there was a difference, Dunnet t test was then used.
The maximum tolerated dose refers to the dose administered when the animal was dying.

Data set [2] deals with TNF-α secretion in THP-1 cells. The data set can be described thus: Inhibition of LPS-stimulated TNF-α secretion in THP-1 cells (ELISA). The format is cell-based. The following applies: Homo sapiens, LPS 1 μg/mL, 4.5 hours. How it is done: TNF-α is a key cytokine involved in the inflammatory process of the listed autoimmune disease, such as rheumatoid arthritis, psoriatic arthritis, ankylosing spondylitis, psoriasis, Crohn's disease, ulcerative colitis, etc. In this test, TNF-α secretion was triggered by incubation with bacterial lipopolysaccharides (LPS). […] The 96-well plate was rotated at 2000 rpm for 5 minutes, and then 50 μL of supernatant was taken. The content of TNF-α in the supernatant was determined by human ELISA kit, and IC50 value of the compound was calculated by XL-Fit (table 4).
A general note: An ELISA detects its analyte on a solid surface through an enzyme-linked reagent.

Data set [3] can be described thus: in vivo. The following applies: rat, po. How it is done:
SD rats were used as the test animals.
Standard curve and preparation and processing of quality control samples:
Stock solution was diluted with 50% acetonitrile-water to obtain standard working solutions of 0.04, 0.10, 0.20, 0.40, 1.00, 2.00, 4.00 μg/mL, and quality control working solutions of 0.10, 1.00, 3.00 μg/mL. […] 200 μL of acetonitrile (containing 5 ng/mL of the internal standard loratadine) was added. After the vortex oscillation for 3 minutes, the solutions were centrifuged at 15000 rpm at 4° C. for 15 minutes. 100 μL of the supernatant was taken for LC-MS/MS analysis. WinNonlin ® 8.0 was used to calculate the experimental results.

Another data set has as its target IRAK4 kinase (Homo sapiens (Human), UniProt Q9NWZ3). The data set is described as follows: IRAK4 kinase inhibitory activity assay (mobility shift assay, Km ATP). The format is biochemical. As to conditions: MSA, ATP 37 μM (Km ATP). How it is done:
The inhibitory activity (IC50) of the compound on IRAK4 kinase under Km ATP was detected by mobility shift assay (MSA). Ten drug concentration gradients were set (initial concentration 1 μM, 3-fold dilution, 2 duplicate wells per concentration). […] After incubation at 28° C. for a period of time, 10 μL of termination buffer was added to terminate the reaction. The conversion rate data was read with Caliper, and then the conversion rate was converted into inhibition rate data. According to the inhibition rate data of each concentration, the IC50 of half inhibitory concentration was calculated by Logit method (Table 3).

Sequence of hERG potassium channel (Q12809 whole entry): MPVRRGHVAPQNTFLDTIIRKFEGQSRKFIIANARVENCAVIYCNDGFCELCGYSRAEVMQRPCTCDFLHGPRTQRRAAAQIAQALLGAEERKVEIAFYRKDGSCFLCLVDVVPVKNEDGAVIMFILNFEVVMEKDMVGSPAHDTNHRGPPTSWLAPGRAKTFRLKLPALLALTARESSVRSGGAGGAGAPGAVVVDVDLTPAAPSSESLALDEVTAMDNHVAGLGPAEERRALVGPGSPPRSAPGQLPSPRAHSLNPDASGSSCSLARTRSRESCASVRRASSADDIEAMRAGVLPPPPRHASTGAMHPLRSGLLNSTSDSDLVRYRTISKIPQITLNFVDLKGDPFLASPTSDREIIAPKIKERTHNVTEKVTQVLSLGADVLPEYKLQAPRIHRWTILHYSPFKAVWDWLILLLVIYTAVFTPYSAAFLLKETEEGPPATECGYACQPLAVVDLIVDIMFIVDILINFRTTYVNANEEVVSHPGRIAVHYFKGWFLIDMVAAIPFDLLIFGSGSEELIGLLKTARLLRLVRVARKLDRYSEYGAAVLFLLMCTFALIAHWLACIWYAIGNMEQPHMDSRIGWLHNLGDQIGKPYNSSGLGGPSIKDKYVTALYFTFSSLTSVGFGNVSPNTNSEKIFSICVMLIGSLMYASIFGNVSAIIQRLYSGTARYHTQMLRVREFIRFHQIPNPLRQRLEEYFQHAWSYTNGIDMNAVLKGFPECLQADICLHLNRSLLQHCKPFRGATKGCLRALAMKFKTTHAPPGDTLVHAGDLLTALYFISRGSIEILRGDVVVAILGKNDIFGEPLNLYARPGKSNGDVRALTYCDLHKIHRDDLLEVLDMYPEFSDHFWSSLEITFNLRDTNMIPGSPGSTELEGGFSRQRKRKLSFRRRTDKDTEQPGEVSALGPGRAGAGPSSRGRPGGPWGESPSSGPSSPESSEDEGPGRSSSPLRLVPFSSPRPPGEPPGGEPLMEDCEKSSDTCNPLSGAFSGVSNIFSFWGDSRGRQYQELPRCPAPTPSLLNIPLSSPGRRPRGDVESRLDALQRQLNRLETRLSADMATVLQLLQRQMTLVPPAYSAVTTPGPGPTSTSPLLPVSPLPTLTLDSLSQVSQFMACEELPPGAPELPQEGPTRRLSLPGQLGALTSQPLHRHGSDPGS
Sequence of IRAK4 kinase (Q9NWZ3 whole entry): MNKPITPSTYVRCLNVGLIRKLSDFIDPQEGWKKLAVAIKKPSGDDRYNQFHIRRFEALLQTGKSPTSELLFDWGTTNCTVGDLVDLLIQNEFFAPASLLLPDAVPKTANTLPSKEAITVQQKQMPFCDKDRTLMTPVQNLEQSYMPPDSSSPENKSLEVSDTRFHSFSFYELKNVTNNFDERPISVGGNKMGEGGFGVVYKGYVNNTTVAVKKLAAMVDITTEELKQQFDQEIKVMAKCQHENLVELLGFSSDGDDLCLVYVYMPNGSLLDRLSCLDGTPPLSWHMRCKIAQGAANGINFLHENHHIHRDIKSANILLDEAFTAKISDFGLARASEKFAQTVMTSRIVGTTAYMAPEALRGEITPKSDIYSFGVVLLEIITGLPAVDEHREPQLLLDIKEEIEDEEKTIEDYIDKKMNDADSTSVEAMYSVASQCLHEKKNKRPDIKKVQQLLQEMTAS

As a reminder, the IC50 is the point on the concentration scale where inhibition reaches its midpoint. Usually half-life stands for how long it takes for the measured level to halve. By AUC(0-t) is commonly meant exposure summed from dosing to a finite time, without extrapolation to infinity. Low values mean low exposure, high ones high exposure. What is called Cmax is the highest concentration seen after dosing. By Tmax is commonly meant the time from dosing to the highest level. In the case of `COc1cc2nn(CCS(=N)(=O)c3ccccc3)cc2cc1NC(=O)c1cccc(C(F)(F)F)n1` (stereo not shown) [Compound I-1], the “Inhibition rate (%) of hERG current” value on hERG potassium channel (5 μM) was -1.0%; at hERG potassium channel (50 μM) it was 2.3%; at hERG potassium channel (500 μM), 15.6%. This molecule also returned an MTD at 6 days in the data set “in vivo [1]” greater than 2000 mg/kg. Further, the IC50 in data set [2] stood at 0.5 nM; at IRAK4 kinase it was 0.3 nM. This molecule also gave a half-life in “in vivo [3]” (SD, in vivo) of 5 h. In “in vivo [3]” (plasma, 25 mg/kg), this molecule came in with an AUC(0-t) of 8330 ng·h/mL. This molecule displayed a Cmax in the data set “in vivo [3]” (plasma, 25 mg/kg) of 1600 ng/mL. Also, in the data set “in vivo [3]” (plasma, 25 mg/kg), the Tmax came to 6.2 h.
